Source: patent publication US7495028B2, “R-bambuterol, its preparation and therapeutic uses” (priority 2002, dated 2009)

Experiments:
[1] = test system: sensitized conscious guinea pigs exposed to aerosol ovalbumin; assay: Protection against allergic bronchospasm in ovalbumin-sensitized conscious guinea pigs; type: in vivo, guinea pig
Protocol: Test method: Guinea pigs (Dunkin-Hartley strain, 200±10 g, equal sexes) were used in this study. Ovalbumin (5%) solution was injected into guinea pigs subcutaneously and intraperitoneally to sensitize the animals. Male and female sensitized animals were kept separately for 14 days, and food and water was available ad libitum. On day 14 after sensitization, animals were randomized into groups of 8 each. The animals were treated orally with saline (control) or various concentrations of R-bambuterol or racemic bambuterol in saline. Four hours after the treatment, each animal was restrained in a glass chamber. After stabilization the animal was exposed to an aerosol of ovalbumin generated by a nebulizer from a 5% solution of ovalbumine at a rate of 0.5 ml/min for a period of 15 seconds. The animal was removed from the chamber, and the behavior of the animal was monitored. The number of the sensitized animals which collapsed were counted, and the latency time, i.e. the time from the exposure to aerosol ovalbumin to the collapse of the animal, was recorded.

hyperlipidemia mice = assay: Lipid lowering effects in Tyloxapol-induced hyperlipidemia mice; type: in vivo
Protocol: Test method: Male and […] mice, Kunming strain, 35 each, weight 18-22 grams, were used. Food and water were available ad libitum. The animals were randomized into 7 groups (n=10). Groups of animals were administered orafly, via a stomach tube, vehicle (distilled water, two groups), R-bambuterol hydrochloride (10 mg/kg and 5 mg/kg), racemic bambuterol hydrochloride (10 mg/kg and 5 mg/kg) and simvastatin (10 mg/kg) once a day for four days. With the exception of one vehicle—treated group (as control), Tyloxapol (400 mg/kg, Sigma Chemical Co.) was injected into the peritoneal cavity of the mice of all groups immediately after the last treatment on the fourth day in order to induce hyperlipidemia. All the animals were fasted overnight prior to the injection of Tyloxapol. Blood samples were collected by cardiac puncture 24 hours after the injection of Tyloxapol. The blood samples were processed to plasma, and concentration of triglycerides (TG), cholesterol (CHO), high density lipoprotein (HDL), low density lipoprotein (LDL) and very low density lipoprotein (VLDL) were measured with an autoblood analyzer (Olympic, Japan).

## CN(C)C(=O)Oc1cc(OC(=O)N(C)C)cc(C(O)CNC(C)(C)C)c1 (stereo not drawn) [RS-bambuterol, bambuterol]
[1]; 1 mg/kg oral
  % collapsed: 75%
  Latency time: 156 ± 38 s
[1]; 1 mg/kg oral (n = 8), four hours before aerosol ovalbumin
  Number collapsed: 6
[1]; 4 mg/kg oral
  % collapsed: 38%
  Latency time: 174 ± 21 s
[1]; 4 mg/kg oral (n = 8)
  Number collapsed: 3
[1]; 8 mg/kg oral
  % collapsed: 25%
[1]; 8 mg/kg oral (n = 8)
  Number collapsed: 2
[1]; 8 mg/kg oral, listed as Racemic bambuterol
  Latency time: 316 ± 36 s
[1]; 8 mg/kg oral, listed as racemic bambuterol
  Latency time: 316 ± 36 s
Hyperlipidemia mice; Tyl + 10 mg
  CHO lipid level: 125.2 ± 19.8 mg/dL
  HDL lipid level: 50 ± 17 mg/dL
  LDL lipid level: 30 ± 6 mg/dL
  VLDL lipid level: 44.2 ± 14.4 mg/dL
Hyperlipidemia mice; Tyl + 10 mg (10 mg/kg oral once a day for four days), plasma 24 hours after Tyloxapol
  TG lipid level: 148 ± 45 mg/dL
